{"source": "patent US10111936B2", "about": "“Metal-glycoprotein complexes and photodynamic therapy of immune privileged sites with same” (Theralase Technologies, Inc., priority 2015, dated 2018)", "key": {"[1]": {"test_system": "RG2 cells (rat glioblastoma tumor model)", "test": "In vivo PDT in rat glioblastoma", "settings": "ALA mediated PDT in RG2 tumor model; comparison", "protocol": "A four-month old rat was injected in the cerebral cortex with 5000 RG2 cells (rat glioblastoma tumor model). Eleven days later, the rat was injected with TLD1433 (5 mg/kg) with human apo-transferrin.\nPDT was administered 24 hours later. Light source and fluence: 808 nm wavelength, 300 J/cm^2 delivered at 100 mW. The number of photons absorbed was 2.8×10^17 photons/cm^3.\nA five-month old rat was injected in the cerebral cortex with 5000 RG2 cells. Eleven days later, the rat was injected with TLD1433 (5 mg/kg) with human apo-transferrin. PDT was administered 24 hours later. Light source and fluence: 808 nm wavelength, 600 J/cm^2 delivered at 200 mW. The number of photons absorbed was 4.41×10^18 photons/cm^3."}, "[2]": {"settings": "cited from earlier work"}, "[3]": {"test": "Absorbance / optical density with transferrin or OPTIFERRIN", "assay_type": "physicochemical", "settings": "novel absorption in the red (600 nm) and near infrared (800 nm)", "description": "Transferrin (0.2 mg/mL) was incubated with different photosensitizers (10 uM) and the absorbance spectra were obtained. […] Note that a large relative increase in absorbance may be accompanied by a small absolute difference and vice versa.\nThe optical density of TLD1433 was measured before and after the addition of either OPTIFERRIN (available from InVitria, a division of Ventria Bioscience) or human apo-transferrin (Sigma). […] This finding highlights the potential of using OPTIFERRIN to increase the efficacy of Theralase's TLD1433 photosensitizer. The increase in optical density will translate to a higher production of reactive oxygen species during PDT treatment. The absorption in red and near infrared light will allow for novel treatment applications for different tumors."}}}
{"compound": "NCC(=O)CCC(=O)O", "note": "[aminolevulinic acid]", "values": [{"measurement": "post PDT survival", "setting": "[1]", "value": 8, "unit": "days"}]}
{"compound": "Cn1nnc2c(C(N)=O)ncn2c1=O", "note": "[temozolomide]", "values": [{"measurement": "half-life", "setting": "[2]", "value": "approximately 1.8 hours"}]}
{"compound": "TLD1433-OPTIFERRIN complex: complex of TLD1433 with OPTIFERRIN, a recombinant human transferrin", "values": [{"measurement": "optical density after addition of OPTIFERRIN", "setting": "[3]", "value": "substantial increase in optical density"}]}
